≈ marks a conversion by molar mass, not a printed value. Where “and” joins values, the source holds several entries; their conditions need not be identical. Equal values may be shown once. Read-outs that look alike come from different tables or passages of the source.

What is called pIC50 is the IC50 on a negative log10 scale, so that one unit is a factor of ten. By DC50 is commonly meant the concentration giving 50% degradation. Read a low DC50 as a more potent degrader. As a reminder, the Solubility is the concentration that dissolves in the medium under given conditions. Lower therefore signals little dissolved substance. One may read the solubility as the dissolved amount per volume that the medium holds. As usually defined, the Dmax is the largest share of the target that was removed.

Series [1] relates to MV411 cells. As to the kind of experiment: MTS cytotoxicity assay against MV411 cells. It counts as cell-based. How it is done:
(§1) The obtained compounds were tested in biological experiments to measure their potency in inhibiting the growth of AML cells and in their degradation of CDK9. These measurements are reported as half-maximum growth inhibitory and half-maximum degradation concentrations, IC50s and DC50s, respectively. Maximum percent degradation (Dmax) values were also obtained during the CDK9 degradation assessments. The common MTS assay was used to acquire the IC50 values, while the DC50 values were obtained using an automated western blot experiment. These values are presented in Table 2, along with pIC50 (log(nM IC50)) to more accurately reflect the differences/lack thereof in in vitro cytotoxicity. The notation “N:N*” represents the number of linker atoms on each side of the rigid triazole ring for a given degrader. Predicted log D values, calculated using the ChemAxon […], are also provided for each degrader. To characterize the physicochemical properties of the new degrader series, two additional assays were performed: a kinetic aqueous solubility assay and the chromatographic log D experiment described earlier. Aqueous solubility is shown in μM while experimentally determined log D is shown as log k′80. Details regarding the execution of each experiment are provided below.
For orientation: Tetrazolium dyes change colour on reduction, which living cells bring about.

For series [2], the target named is T1, CDK9 (Homo sapiens, UniProt P50750+Q96SW2).
T1 construct: endogenous in cells
T1 sequence (P50750 whole entry): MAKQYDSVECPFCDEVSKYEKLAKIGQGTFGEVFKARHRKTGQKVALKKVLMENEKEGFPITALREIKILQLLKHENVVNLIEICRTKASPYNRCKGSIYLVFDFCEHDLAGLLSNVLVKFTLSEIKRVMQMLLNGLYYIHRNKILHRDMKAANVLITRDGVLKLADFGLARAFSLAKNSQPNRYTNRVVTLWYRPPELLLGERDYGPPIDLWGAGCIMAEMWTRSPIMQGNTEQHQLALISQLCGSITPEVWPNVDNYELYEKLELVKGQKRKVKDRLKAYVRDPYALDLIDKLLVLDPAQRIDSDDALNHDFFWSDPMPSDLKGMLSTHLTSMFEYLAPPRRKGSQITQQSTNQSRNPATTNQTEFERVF
T1 sequence (O60563 whole entry partner): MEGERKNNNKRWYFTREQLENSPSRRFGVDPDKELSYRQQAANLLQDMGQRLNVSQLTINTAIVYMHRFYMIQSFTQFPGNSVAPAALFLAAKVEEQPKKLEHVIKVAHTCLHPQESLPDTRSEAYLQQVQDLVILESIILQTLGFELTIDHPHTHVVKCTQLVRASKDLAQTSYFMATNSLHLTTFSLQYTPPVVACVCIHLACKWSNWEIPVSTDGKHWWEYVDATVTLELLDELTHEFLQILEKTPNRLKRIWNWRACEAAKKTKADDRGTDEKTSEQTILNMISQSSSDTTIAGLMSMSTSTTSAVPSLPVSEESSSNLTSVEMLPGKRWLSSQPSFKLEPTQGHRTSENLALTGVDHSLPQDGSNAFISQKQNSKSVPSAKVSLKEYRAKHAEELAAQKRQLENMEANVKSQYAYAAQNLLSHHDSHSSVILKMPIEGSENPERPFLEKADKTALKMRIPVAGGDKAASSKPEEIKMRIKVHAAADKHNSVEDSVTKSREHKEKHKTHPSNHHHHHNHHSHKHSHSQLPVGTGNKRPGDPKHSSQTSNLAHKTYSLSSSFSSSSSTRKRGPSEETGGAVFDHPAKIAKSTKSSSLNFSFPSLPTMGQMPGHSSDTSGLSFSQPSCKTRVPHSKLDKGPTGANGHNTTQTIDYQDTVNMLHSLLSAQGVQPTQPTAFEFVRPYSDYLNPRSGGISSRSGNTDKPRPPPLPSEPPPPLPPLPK
T1 sequence (Q96SW2 whole entry): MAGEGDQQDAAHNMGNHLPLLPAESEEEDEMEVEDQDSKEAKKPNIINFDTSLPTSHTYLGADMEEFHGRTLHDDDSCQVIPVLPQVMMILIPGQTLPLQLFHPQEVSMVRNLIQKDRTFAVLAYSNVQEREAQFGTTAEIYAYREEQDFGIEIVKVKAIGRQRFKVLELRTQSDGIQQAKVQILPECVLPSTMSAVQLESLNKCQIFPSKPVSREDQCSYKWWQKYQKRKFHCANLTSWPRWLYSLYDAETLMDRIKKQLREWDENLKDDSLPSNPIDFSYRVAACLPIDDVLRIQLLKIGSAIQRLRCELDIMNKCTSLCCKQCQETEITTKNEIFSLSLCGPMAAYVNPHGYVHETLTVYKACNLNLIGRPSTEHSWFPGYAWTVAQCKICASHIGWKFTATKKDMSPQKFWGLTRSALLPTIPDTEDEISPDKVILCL
T1 sequence (Q16531 whole entry partner): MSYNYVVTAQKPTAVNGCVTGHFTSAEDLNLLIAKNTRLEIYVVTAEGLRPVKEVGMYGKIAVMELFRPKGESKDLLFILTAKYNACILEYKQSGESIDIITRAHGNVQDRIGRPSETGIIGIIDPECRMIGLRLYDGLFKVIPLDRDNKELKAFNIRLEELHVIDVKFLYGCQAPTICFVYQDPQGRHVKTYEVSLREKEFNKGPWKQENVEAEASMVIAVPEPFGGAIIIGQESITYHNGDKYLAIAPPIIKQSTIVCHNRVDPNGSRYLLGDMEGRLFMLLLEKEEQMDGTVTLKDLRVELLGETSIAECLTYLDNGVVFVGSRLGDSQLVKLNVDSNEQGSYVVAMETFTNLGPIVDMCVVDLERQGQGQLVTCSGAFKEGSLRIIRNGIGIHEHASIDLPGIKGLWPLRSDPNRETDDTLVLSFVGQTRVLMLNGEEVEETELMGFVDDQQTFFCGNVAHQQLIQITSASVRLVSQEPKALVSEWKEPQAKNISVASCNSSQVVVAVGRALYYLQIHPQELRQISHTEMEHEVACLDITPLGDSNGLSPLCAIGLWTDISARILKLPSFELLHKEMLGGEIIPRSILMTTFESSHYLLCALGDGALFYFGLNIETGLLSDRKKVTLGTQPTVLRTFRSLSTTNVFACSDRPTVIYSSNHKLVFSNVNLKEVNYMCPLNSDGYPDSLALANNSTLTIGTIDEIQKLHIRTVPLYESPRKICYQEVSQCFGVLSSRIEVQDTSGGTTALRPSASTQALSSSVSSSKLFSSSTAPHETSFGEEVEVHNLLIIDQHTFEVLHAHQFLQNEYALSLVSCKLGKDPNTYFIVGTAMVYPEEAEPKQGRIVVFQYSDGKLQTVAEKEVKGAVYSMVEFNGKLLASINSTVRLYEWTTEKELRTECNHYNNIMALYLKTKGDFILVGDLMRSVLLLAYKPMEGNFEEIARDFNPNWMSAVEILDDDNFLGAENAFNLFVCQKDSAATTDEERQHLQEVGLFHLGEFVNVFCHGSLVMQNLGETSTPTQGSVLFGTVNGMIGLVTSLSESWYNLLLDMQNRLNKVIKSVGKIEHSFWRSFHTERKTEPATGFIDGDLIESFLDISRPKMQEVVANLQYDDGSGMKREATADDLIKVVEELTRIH
The series can be described thus: CDK9 degradation, automated western blot, triazole-containing AT7519 degraders (MV411). The following applies: for DC50: CDK9 degradation, MV411 cells; for Dmax (%) / Dmax: maximum percent CDK9 degradation; for Dmax: MV4-11. It counts as cell-based. Here is the method: as §1
Background: A western blot detects proteins with antibodies after separation by electrophoresis.

A short description of series [3]: Chromatographic log D determination (log k′80). It counts as physicochemical. Conditions: for logk′80: chromatographic log D, PLRP-S column, pH 7.72. The gist of the method:
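Samples were diluted from DMSO stock to 122 μM in acetonitrile and run on a PLRP-S column in 20:80 aqueous ammonium acetate/acetonitrile, pH 7.72, at 1 mL/min with UV detection at 337 nm. log k′80 used a fixed 0.3 min dead time derived from a five-compound standard set. Runs were done in triplicate.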

The conditions of series [4]: pH 7.4.
Description: (§2) Kinetic Solubility Assay. Kinetic solubility (KS) was measured according to Millipore protocol PC2445 EN00. Test compounds were weighed and diluted with DMSO to 10 mM. From the stock solutions as well as blank (100% DMSO) was taken 17.5 μL and diluted to 500 μM with 332.5 μL of 100 mM phosphate Buffered Saline (PPBS) at pH 7.4 in a 96-well quartz plate. From the 500 μM solutions was taken 150 μL and dispensed into a 96-well Millipore filter plate (Product number: MSSLBPC10). In the quartz plate, serial dilutions were performed down to 0.5 μM using the 100 mM PBS solution, leaving 100 μL of each test sample at 11 different concentrations, representing standards. These steps were performed in triplicate, at minimum, for each test compound. Both plates were shaken on an orbital shaker at 150 rpm for 1.5 hours. The contents of the filter plate were filtered and 100 μL of the filtrate from each well was dispensed into the quartz plate containing standards. The quartz plate was then analyzed using a UV plate reader where absorbance was measured at the relevant wavelength for each compound. After blank subtraction, for each test sample, solubility was determined based on the optical density of filtered samples and the equations derived from the corresponding linear standard curve.
The subject of series [5] is MV411 cells. The series can be described thus: Cellular potency in human serum versus fetal bovine serum, MV411. It is filed as cell-based. An excerpt: FIGS. 3A-3C. In vitro cellular potency (against MV411 cells) in human serum (HS) versus fetal bovine serum (FBS) for compounds 4.7b (FIG. 3A) 4.9c (FIG. 3B), and 4,8a (FIG. 3C).
This contrasts with 4.8a, which loses its potency by almost 20-fold in human serum (FIG. 3C).

The nature of series [6]: Kinetic solubility assay. Conditions: kinetic solubility, PBS pH 7.4; for solubility at 1.5 h: phosphate buffered saline, pH 7.4, aqueous buffer, kinetic from dmso stock, Solubility (μM).
Description: as §2
In series [7] the test system is AML cells. The series can be described thus: Drug washout experiment (cytotoxicity). It is filed as cell-based. The following applies: 6 h drugging, 48 h total. How it is done: To better evaluate the catalytic mechanism of action of this degrader series, a drug washout (WO) experiment was performed. This experiment involved the drugging of cells for six hours after which the cell media was replaced with a drug-free batch.

For series [8], the system named is MOLM13 cells. As to the kind of experiment: Protein shift experiment, cytotoxicity in FBS vs human serum, MOLM13. It is filed as cell-based. An excerpt: In order to determine the suitability of the lead compounds for advanced biological studies, the four degraders (4.49, 4.62, 4.72 and 4.78) were selected for a protein-shift analysis due to their higher potency and solubility.

The target of series [9] is T1, CDK9. As to the kind of experiment: CDK9 degradation potency (DC50) of VIP152-based degraders. It is filed as cell-based. The following applies: VIP152-based series.
Series [10] concerns MOLM13 cells. The series can be described thus: Cytotoxicity against MOLM13 cells. It counts as cell-based.
The mark [11] stands for this setting: growth inhibition, MV411 cells, MTS, read-out: IC50.
Where [12] appears, read: Homo sapiens, MV4-11, defined as log(nM IC50), MV411, read-out: pIC50 (converted).
Where [13] appears, read: Homo sapiens, MV4-11, growth inhibition, MV411 cells, MTS, read-out: IC50.

In [1] (defined as log(nM IC50), MV411), `O=C1CCC(N2C(=O)c3cccc(OCCCCn4cc(CCCCN5CCC(NC(=O)c6n[nH]cc6NC(=O)c6c(Cl)cccc6Cl)CC5)nn4)c3C2=O)C(=O)N1` (stereo not shown) [Compound 4.7a, 4-(2,6-dichlorobenzamido)-N-(1-(4-(1-(4-((2-(2,6-dioxopiperidin-3-yl)-1,3-dioxoisoindolin-4-yl)oxy)buty)-1H-1,2,3-triazol-4-yl)butyl)piperidin-4-yl)-1H-pyrazole-3-carboxamide] displayed a pIC50 of 2.4. Further, the IC50 in series [1] (setting [11]) is 241 nM. Moreover, in series [2], the DC50 stood at 130 nM and the “Dmax (%)” value turned out to be 67.5%. The “logk′80” value in [3] was found to be 0.100. In series [4], the “Solubility” value came to 12.4 µM (≈ 10.3 µg/mL).
In [1] (defined as log(nM IC50), MV411), `O=C1CCC(N2C(=O)c3cccc(OCCCn4cc(CCCCCN5CCC(NC(=O)c6n[nH]cc6NC(=O)c6c(Cl)cccc6Cl)CC5)nn4)c3C2=O)C(=O)N1` (stereo not shown) [Compound 4.7c, 4-(2,6-dichlorobenzamido)-N-(1-(5-(1-(3-((2-(2,6-dioxopiperidin-3-yl)-1,3-dioxoisoindolin-4-yl)oxy)propyl)-11H-1,2,3-triazol-4-yl)pentyl)piperidin-4-yl)-1H-pyrazole-3-carboxamide] gave a negative logarithm of the IC50 (pIC50) of 2.3. For the same compound, the IC50 in [1] (setting [11]) stood at 194 nM. Moreover, in series [2], the DC50 came out at 404 nM and the “Dmax (%)” value is on record as 58.6%. Also, in series [3], the “logk′80” value is 0.106. Besides, the “Solubility” value in [4] came to 31.3 µM (≈ 26.1 µg/mL).
With `O=C1CCC(N2C(=O)c3cccc(OCCCCCCCn4cc(CCN5CCC(NC(=O)c6n[nH]cc6NC(=O)c6c(Cl)cccc6Cl)CC5)nn4)c3C2=O)C(=O)N1` (stereo not shown) [Compound 4.8a, 4-(2,6-dichlorobenzamido)-N-(1-(2-(1-(7-((2-(2,6-dioxopiperidin-3-yl)-1,3-dioxoisoindolin-4-yl)oxy)heptyl)-1H-1,2,3-triazol-4-yl)ethyl)piperidin-4-yl)-1H-pyrazole-3-carboxamide], the IC50 in series [1] (setting [12]) is 50.1 nM. The IC50 in series [1] (setting [13]) amounted to 46.9 nM. Besides, in series [5], the “loss of potency in human serum versus FBS” value is given as approximately 20 fold. This compound also returned a solubility at 1.5 h in [6] of 5.65 µM (≈ 4.79 µg/mL). In addition, in series [2], half-maximal degradation (DC50) was put at 60.1 nM and the maximal degradation (Dmax) was found to be 88.3%. Moreover, in [3], the “minimum difference in log k′80 to constitutional isomers” value stood at 0.030 and the “logk′80” value amounted to 0.146.
Consider `O=C1CCC(N2C(=O)c3cccc(OCCCCn4cc(CCCCCN5CCC(NC(=O)c6n[nH]cc6NC(=O)c6c(Cl)cccc6Cl)CC5)nn4)c3C2=O)C(=O)N1` (stereo not shown) [Compound 4.8b, 4-(2,6-dichlorobenzamido)-N-(1-(5-(1-(4-((2-(2,6-dioxopiperidin-3-yl)-1,3-dioxoisoindolin-4-yl)oxy)butyl)-1H-1,2,3-triazol-4-yl)pentyl)piperidin-4-yl)-1H-pyrazole-3-carboxanmide], for which the pIC50 in [1] (defined as log(nM IC50), MV411) is recorded as 2.1. In [1] (setting [11]), the IC50 amounted to 130 nM. In series [2], the DC50 was 951 nM and the “Dmax (%)” value amounted to 68.5%. Moreover, the “logk′80” value in [3] was 0.112. Further, the “Solubility” value in series [4] turned out to be 13.2 µM (≈ 11.2 µg/mL).
Regarding `O=C1CCC(N2C(=O)c3cccc(OCCCCCCn4cc(CCCCCCCN5CCC(NC(=O)c6n[nH]cc6NC(=O)c6c(Cl)cccc6Cl)CC5)nn4)c3C2=O)C(=O)N1` (stereo not shown) [Compound 4.9b], the pIC50 in series [1] (defined as log(nM IC50), MV411) was 1.8. Also, the IC50 in [1] (setting [11]) is 63.3 nM. Moreover, in series [2], half-maximal degradation (DC50) was put at 61.4 nM and the “Dmax (%)” value was found to be 78.0%. Further, in series [3], the “logk′80” value was 0.176. In series [4], the “Solubility” value was found to be 4.70 µM (≈ 4.25 µg/mL). Moreover, the “retention of potency after drug washout” value in series [7] is “retain their potency”.
For `O=C1CCC(N2C(=O)c3cccc(OCCCn4cc(CCCCCCCCCCN5CCC(NC(=O)c6n[nH]cc6NC(=O)c6c(Cl)cccc6Cl)CC5)nn4)c3C2=O)C(=O)N1` (stereo not shown) [Compound 4.9c, 4-(2,6-dichlorobenzamido)-N-(1-(10-(1-(3-((2-(2,6-dioxopiperidin-3-yl)-1,3-dioxoisoindolin-4-yl)oxy)propyl)-1H-1,2,3-triazol-4-yl)decyl)piperidin-4-yl)-1H-pyrazole-3-carboxamide], the IC50 in series [1] (setting [12]) was 7.94 nM. In addition, the IC50 in series [1] (setting [13]) worked out at 8.8 nM. The “improvement in cytotoxicity over constitutional isomers” value in series [1] (within isomer set) is recorded as approximately 10 fold. In addition, the “loss of potency in human serum versus FBS” value in series [5] is recorded as 3 fold. The compound also showed a solubility at 1.5 h in series [6] of 3.42 µM (≈ 3.09 µg/mL). Further, in series [2], half-maximal degradation (DC50) was put at 44.8 nM and the Dmax was 88.6%. In addition, in series [3], the “minimum difference in log k′80 to constitutional isomers” value was 0.013 and the “logk′80” value is reported as 0.197. Moreover, the “retention of potency after drug washout” value in series [7] is listed as “retain their potency”.
With `O=C1CCC(N2C(=O)c3cccc(OCCCCCCn4cc(CCCCCN5CCC(NC(=O)c6n[nH]cc6NC(=O)c6c(Cl)cccc6Cl)CC5)nn4)c3C2=O)C(=O)N1` (stereo not shown) [Compound 4.10, 4-(2,6-dichlorobenzamido)-N-(1-(5-(1-(6-((2-(2,6-dioxopiperidin-3-yl)-1,3-dioxoisoindolin-4-yl)oxy)hexyl)-1H-1,2,3-triazol-4-yl)pentyl)piperidin-4-yl)-1H-pyrazole-3-carboxamide], the “improvement in cytotoxicity over 4.3” value in [1] (4.10 versus 4.3) was “over 5 fold”. The IC50 in series [1] (setting [12]) is 50.1 nM. The IC50 in series [1] (setting [13]) is 46.6 nM. Further, in series [6], the solubility at 1.5 h was 5.46 µM (≈ 4.78 µg/mL). Also, in [2], it took 99.9 nM to reach half-maximal degradation (DC50) and the Dmax is 70.1%. Besides, in [3], the “logk′80” value is 0.140. The “retention of potency after drug washout” value in series [7] is listed as “retain their potency”.
With `COc1cc(F)ccc1-c1cc(Nc2cc(CS(C)(=O)=NC(=O)CN3CCC(c4cn(CC(=O)N5CCN(CCCc6cccc7c6C(=O)N(C6CCC(=O)NC6=O)C7=O)CC5)nn4)CC3)ccn2)ncc1F` (stereo not shown) [Compound 4.72, 2-(4-(1-(2-(4-(3-(2-(2,6-dioxopiperidin-3-yl)-1,3-dioxoisoindolin-4-yl)propyl)piperazin-1-yl)-2-oxoethyl)-1H-1,2,3-triazol-4-yl)piperidin-1-yl)-N-(((2-((5-fluoro-4-(4-fluoro-2-methoxyphenyl)pyridin-2-yl)amino)pyridin-4-yl)methyl)(methyl) (oxo)-16-sulfaneylidene) acetamide], the IC50 in [8] (MOLM13, fetal bovine serum, read-out: IC50 (μM) FBS) was 0.47 µM; in series [8] (MOLM13, human serum, read-out: IC50 (μM) HS) it was 0.55 µM; in series [10] (MOLM13, read-out: potency) it was 150 nM; in series [10] (cytotoxicity, MOLM13 cells, read-out: IC50) it was 180 nM. In addition, the “Solubility” value in series [6] is 16 µM and 15.7 µM. In addition, in series [3], the “logk′80” value was found to be 0.11. In series [9], this compound registered a DC50 of 210 nM.
Consider `COc1cc(F)ccc1-c1cc(Nc2cc(CS(C)(=O)=NC(=O)CN3CCC(CN4CCC(COc5cccc6c5C(=O)N(C5CCC(=O)NC5=O)C6=O)CC4)CC3)ccn2)ncc1F` (stereo not shown) [Compound 4.78, 2-(4-{[4-({[2-(2,6-dioxopiperidin-3-yl)-1,3-dioxo-2,3-dihydro-1H-isoindol-4-yl]-oxy}methyl)piperidin-1-yl]methyl}piperidin-1-yl)-N-{[(2-{[5-fluoro-4-(4-fluoro-2-methoxyphenyl)pyridin-2-yl]amino}pyridin-4-yl)methyl](methyl)oxo-λ^6-sulfanylidene}acetamide], for which the IC50 in [8] (Homo sapiens, MOLM-13, MOLM13, fetal bovine serum, read-out: IC50 (μM) FBS) was 0.52 µM; in series [8] (MOLM-13, MOLM13, human serum, read-out: IC50 (μM) HS), 0.49 µM; in [10] (Homo sapiens, MOLM-13, cytotoxicity, MOLM13 cells, read-out: IC50), 410 nM. In series [6], the solubility at 1.5 h was found to be 28.9 µM (≈ 26.4 µg/mL). For the same compound, the “logk′80” value in series [3] came out at 0.18. Also, in series [9], the DC50 was 820 nM.

(Values after US20250236607A1, “CYCLIN-DEPENDENT KINASE 9 (CDK9) DEGRADERS AND METHODS OF USING THEREOF” (OHIO STATE INNOVATION FOUNDATION, priority 2022, published 2025).)
